Experimental data: patent EP1960783B1, “REDUCTION OF NON-SPECIFIC BINDING IN ASSAYS” (Siemens Healthcare Diagnostics Inc., priority 2005, dated 2007)

Test: Blocking of non-specific binding by candidate blocker additives in the LOCI assay for CTNI (troponin) on the VISTA analyzer
Details: for % supression*: NSB 1 sample vs PBS control
From the text: Samples from a local blood bank were screened to determine if they produced a response with the troponin assay. Any donor sample that produced a positive result with the troponin test was assumed to be a false positive. This was confirmed by testing all samples that gave positive responses with at least one commercially available reference method. For the results reported here, the test results were confirmed using the Dade Behring DIMENSION Rxl® troponin (CTNI) test. The false positive samples were further screened for known causes of false positivity. The primary root cause of false positive results is human antibodies that bind mouse antibodies, an interference known as "HAMA" (Human Anti-Mouse Antibodies). The screening process used to determine if samples have HAMA interference consists of adding known HAMA binders (also known as blocking agents) that are available commercially from Roche and Scantibodies. If a sample that gives a positive response becomes normal when HAMA binders are added to the sample, the sample is assumed to be a false positive due to HAMA. Some samples were not corrected by the addition of HAMA binders. These were used in the testing described in the following examples.
An assay for CTNI, described in "Quantitation of Cardiac Markers by LOCI™ Technology", R. Bauer, et al., (Clinical Chemistry 2004; 50(6 supplement): A5) was used for evaluation of the candidate blocker compounds. The reagents for doing this assay consist of an antibody coated acceptor latex (acceptor bead) that emits light when contacted by singlet oxygen, a biotinylated antibody, and a streptavidin coated donor latex that produces singlet oxygen when illuminated by light of wavelengths that are absorbed by a photosensitizer dye dissolved in the latex particles. The streptavidin of the donor latex was bound to the latex particles through a spacer of dextran with aldehyde linking groups. In the case of the acceptor beads, the antibody was connected to the particles through a linking group or spacer that results from a combination of aminodextran and dextranaldehyde. For both latex reagents, the excess aldehyde groups remaining after linkage of the proteins are reacted with carboxymethoxyamine to quench the aldehydes.
These reagents are packaged in FLEX® containers that serve as reservoirs for the VISTA™ automated clinical analyzer that is described in "Development and Initial Performance of a New High-Volume Multi-Detector Analyzer: The DIMENSION VISTA™ Integrated System", T. Evers, et al. (Clinical Chemistry 2004; 50(6 supplement)) A31. The test kits and the analyzer are available from Dade Behring Inc., Newark, DE, USA. Candidate blocking reagents (soluble protein-polysaccharide conjugates (preformed or formed in situ) that reduce or eliminate interference from sample components) were tested by adding them (or a precursor such as, e.g., dextran aldehyde) to the biotinylated antibody reagent in prototype FLEX® containers or in some cases directly to the sample. FLEX® containers are from Dade Behring Inc.
Each test result shown in the tables below is the average of four test results. In general, the precision of the measurements was <2% CV for calibrators and for measurements of discrepant samples in those cases where effective blockers were used. The testing was done on different days with different instruments, so many control tests were needed to enable comparison of different sets of data.
Dextranaldehyde reacts with proteins to form Schiff's bases between the aldehyde functionality and the lysine amino groups of proteins thereby producing a conjugate. This reaction was accomplished by adding 5 mg/mL 500 kDa dextranaldehyde to the biotinylated antibody reagent of the CTNI FLEX® container, which contains 50 mg/mL of BSA in a pH 7.2 HEPES buffer with 1mg/mL 100-200 KDa dextran. […]

[1] = Table 5 Run 1, additive 5 mg/mL in biotinylated antibody reagent
[2] = Table 4, additive 1 mg/mL added to sample
[3] = Table 4, additive 1 mg/mL added to calibrators and sample, held half an hour before testing
[4] = Table 5 Run 2, additive 5 mg/mL in biotinylated antibody reagent

100-200-Dexal-BSA-50, second lot: 100-200 kDa dextranaldehyde conjugated with BSA, 100 parts to 50 parts
% supression* [1]: 100.00% | Test Result Counts Cal 0 [1]: 7,136 Counts | Test Result Counts Cal 8 [1]: 807,327 Counts | Test Result Counts NSB 1 [1]: 7,134 Counts

100-200-Dexal-BSA-30: dextranaldehyde prepared from 100-200 kDa dextran conjugated with BSA at 100 parts dextranaldehyde to 30 parts BSA
% supression* [2]: 99.7% | Test Result Counts Cal 0 [3]: 8,460 Counts | Test Result Counts Cal 8 [3]: 969,563 Counts | Test Result Counts NSB 1 [3]: 11,242 Counts

100-200-Dexat-ovalbumin-50: 100-200 kDa dextranaldehyde conjugated with ovalbumin, 100 parts to 50 parts
% supression* [4]: 99.26% | Test Result Counts Cal 0 [4]: 6,573 Counts | Test Result Counts Cal 8 [4]: 749,661 Counts | Test Result Counts NSB 1 [4]: 12,630 Counts

100-200-Dexal-BSA-50, first lot: 100-200 kDa dextranaldehyde conjugated with BSA, 100 parts to 50 parts
% supression* [1]: 99.95% | Test Result Counts Cal 0 [1]: 6,578 Counts | Test Result Counts Cal 8 [1]: 743,213 Counts | Test Result Counts NSB 1 [1]: 7,005 Counts

100-200-Dexal-ovalbumin-100: 100-200 kDa dextranaldehyde conjugated with ovalbumin, 100 parts to 100 parts
% supression* [4]: 95.93% | Test Result Counts Cal 0 [4]: 6,370 Counts | Test Result Counts Cal 8 [4]: 734,218 Counts | Test Result Counts NSB 1 [4]: 39,569 Counts

100-200-Dexal-BSA-100: 100-200 kDa dextranaldehyde conjugated with BSA, 100 parts to 100 parts
% supression* [1]: 99.97% | Test Result Counts Cal 0 [1]: 7,320 Counts | Test Result Counts Cal 8 [1]: 823,386 Counts | Test Result Counts NSB 1 [1]: 7,544 Counts

BSA conjugate formed in situ: conjugate formed by adding 5 mg/mL 500 kDa dextranaldehyde to reagent containing 50 mg/mL BSA
blocking the nonspecific binding (summary in words of Table 2, discrepant samples NSB 1-29): nearly bringing the falsely elevated results to the same level as the zero calibrator | blocking the interference (summary in words of Table 7, compared with the carboxymethyloxime derivative of dexal): significantly more effective

100-200-Dexal-BSA-10: dextranaldehyde from 100-200 kDa dextran conjugated with BSA, 100 parts dextranaldehyde to 10 parts BSA
% supression* [2]: 98.2% | Test Result Counts Cal 0 [3]: 8,389 Counts | Test Result Counts Cal 8 [3]: 954,766 Counts | Test Result Counts NSB 1 [3]: 26,160 Counts
